In paper PMC6800809 (ChemMedChem, 2019):
Values after ≈ are worked out from the molar mass of the structure shown.

How the values were obtained:
M. tuberculosis H37Rv = test: MIC determination against M. tuberculosis H37Rv in liquid medium; type: cell-based; conditions: Mycobacterium tuberculosis, 120 h, read-out: H37Rv MIC90
HepG2 cytotoxicity = conditions: human, HepG2 cells
MbtA = conditions: 44.2 μM MbtA, ligand 0.75 mM
HepG2 cells = test: HepG2 cytotoxicity

## CO[C@H]1/C=C/O[C@@]2(C)Oc3c(C)c(O)c4c(O)c(c(/C=N/N5CCN(C)CC5)c(O)c4c3C2=O)NC(=O)/C(C)=C\C=C\[C@H](C)[C@H](O)[C@@H](C)[C@@H](O)[C@@H](C)[C@H](OC(C)=O)[C@@H]1C [Rifampicin, reference compound]
M. tuberculosis H37Rv
  MIC90: 0.1 µM (≈ 0.0823 µg/mL)
HepG2 cytotoxicity
  IC50 at 2 days: > 100 µM

## O=[N+]([O-])c1cc(C(F)(F)F)ccc1NCCc1c[nH]c2ccc(O)cc12 [Compound 5, 5-hydroxy-indol-3-ethylamino-(2-nitro-4-trifluoromethyl)benzene]
RAW 264.7 cells
  IC50: 29 µM
MbtA
  Response in STD and Water-LOGSY experiments: positive responses
HepG2 cells; glucose and galactose media
  HepG2 cytotoxicity, IC50 towards cells grown in both media: relatively low cytotoxicity
HepG2 cells; ratio of HepG2 IC50 in glucose to galactose medium (mitochondrial toxicity)
  Ratio (Glu/Gal): 1.2
